Assay results: the NIST ThermoML archive (doi:10.1021/je060271a)
Several values for one entry are separate records, joined by “and”; a condition that tells them apart may be missing. Equal values may be shown once.

Conditions: 303.15 K, Liquid, Vibrating tube method

CCCCCC(=O)OCC(COC(=O)CCCCC)(COC(=O)CCCCC)COC(=O)CCCCC [pentaerythritol tetrahexanoate]
Conditions	mass density
228.5 kPa	988.5 kg/m3
228.8 kPa	988.5 kg/m3 and 988.4 kg/m3
229 kPa	988.6 kg/m3
229.5 kPa	988.6 kg/m3
229.7 kPa	988.5 kg/m3
230 kPa	988.5 kg/m3
230.2 kPa	988.5 kg/m3
230.4 kPa	988.5 kg/m3
230.8 kPa	988.5 kg/m3
230.9 kPa	988.5 kg/m3
231.1 kPa	988.3 kg/m3
231.4 kPa	988.5 kg/m3
231.8 kPa	988.4 kg/m3
233.2 kPa	988.5 kg/m3
233.5 kPa	988.4 kg/m3 and 988.5 kg/m3
242.4 kPa	988.5 kg/m3
244 kPa	988.5 kg/m3
244.1 kPa	988.6 kg/m3
244.5 kPa	988.5 kg/m3
247.3 kPa	988.5 kg/m3
247.4 kPa	988.4 kg/m3
247.8 kPa	988.5 kg/m3
248.1 kPa	988.4 kg/m3 and 988.6 kg/m3
248.3 kPa	988.5 kg/m3
249.7 kPa	988.5 kg/m3
250.2 kPa	988.5 kg/m3
250.4 kPa	988.4 kg/m3
250.6 kPa	988.5 kg/m3
250.7 kPa	988.6 kg/m3
262 kPa	988.6 kg/m3
283.9 kPa	988.4 kg/m3
284.4 kPa	988.6 kg/m3
284.8 kPa	988.6 kg/m3 and 988.5 kg/m3
287.9 kPa	988.5 kg/m3
288.2 kPa	988.6 kg/m3
288.7 kPa	988.6 kg/m3
289.1 kPa	988.6 kg/m3
289.6 kPa	988.6 kg/m3 and 988.5 kg/m3
293.3 kPa	988.6 kg/m3
294 kPa	988.7 kg/m3 and 988.6 kg/m3
294.3 kPa	988.6 kg/m3
294.8 kPa	988.5 kg/m3
295 kPa	988.5 kg/m3
295.2 kPa	988.4 kg/m3
295.9 kPa	988.6 kg/m3 and 988.5 kg/m3
296.4 kPa	988.6 kg/m3 and 988.5 kg/m3
296.9 kPa	988.6 kg/m3
297.3 kPa	988.4 kg/m3
297.6 kPa	988.5 kg/m3
305.4 kPa	988.5 kg/m3
305.8 kPa	988.6 kg/m3
305.9 kPa	988.6 kg/m3
312.9 kPa	988.4 kg/m3
313.2 kPa	988.6 kg/m3
314.1 kPa	988.6 kg/m3
314.5 kPa	988.5 kg/m3
314.8 kPa	988.5 kg/m3
315.2 kPa	988.5 kg/m3
315.8 kPa	988.6 kg/m3
324.2 kPa	988.6 kg/m3
324.7 kPa	988.5 kg/m3
329.4 kPa	988.6 kg/m3
329.9 kPa	988.6 kg/m3
330.4 kPa	988.7 kg/m3
330.8 kPa	988.6 kg/m3
331.1 kPa	988.6 kg/m3
331.5 kPa	988.5 kg/m3
331.6 kPa	988.6 kg/m3
332 kPa	988.6 kg/m3
332.7 kPa	988.6 kg/m3 and 988.7 kg/m3
334.1 kPa	988.7 kg/m3
334.4 kPa	988.5 kg/m3
334.6 kPa	988.5 kg/m3
335.1 kPa	988.6 kg/m3
335.6 kPa	988.6 kg/m3
335.7 kPa	988.6 kg/m3
336.2 kPa	988.6 kg/m3
336.5 kPa	988.6 kg/m3
337 kPa	988.6 kg/m3
337.6 kPa	988.6 kg/m3
337.9 kPa	988.6 kg/m3
338.1 kPa	988.6 kg/m3
338.3 kPa	988.5 kg/m3
339 kPa	988.5 kg/m3
340 kPa	988.6 kg/m3
341.5 kPa	988.5 kg/m3
342.1 kPa	988.6 kg/m3
342.8 kPa	988.7 kg/m3
343.1 kPa	988.5 kg/m3
343.3 kPa	988.6 kg/m3
343.8 kPa	988.5 kg/m3
389.7 kPa	988.6 kg/m3
391.9 kPa	988.5 kg/m3
393.8 kPa	988.6 kg/m3
396.4 kPa	988.7 kg/m3
398.9 kPa	988.6 kg/m3
401 kPa	988.6 kg/m3
403.1 kPa	988.6 kg/m3
405.6 kPa	988.6 kg/m3
407.9 kPa	988.5 kg/m3
410.3 kPa	988.7 kg/m3
413.3 kPa	988.6 kg/m3
415.4 kPa	988.6 kg/m3
418.3 kPa	988.7 kg/m3
420.6 kPa	988.6 kg/m3
423.2 kPa	988.6 kg/m3
426.5 kPa	988.7 kg/m3
428.6 kPa	988.7 kg/m3
431 kPa	988.6 kg/m3
434 kPa	988.6 kg/m3
436.4 kPa	988.7 kg/m3
439.4 kPa	988.6 kg/m3
442.5 kPa	988.7 kg/m3
445.1 kPa	988.7 kg/m3
448.1 kPa	988.6 kg/m3
451.4 kPa	988.6 kg/m3
579.1 kPa	988.9 kg/m3
583.8 kPa	988.9 kg/m3
588.3 kPa	988.7 kg/m3
593.5 kPa	988.7 kg/m3
598.6 kPa	988.6 kg/m3
604.3 kPa	988.7 kg/m3
609.3 kPa	988.6 kg/m3
614.4 kPa	988.7 kg/m3
620.8 kPa	988.8 kg/m3
625.5 kPa	988.7 kg/m3
631 kPa	988.8 kg/m3
635.9 kPa	988.8 kg/m3
642.5 kPa	988.8 kg/m3
648.3 kPa	988.8 kg/m3
653.8 kPa	988.8 kg/m3
660.6 kPa	988.8 kg/m3
666.7 kPa	988.8 kg/m3
672.6 kPa	988.8 kg/m3
679.9 kPa	988.7 kg/m3
686 kPa	988.7 kg/m3
838 kPa	988.9 kg/m3
872.9 kPa	989 kg/m3
882.8 kPa	988.9 kg/m3
890.8 kPa	988.9 kg/m3
899 kPa	988.9 kg/m3
907.3 kPa	989 kg/m3
916.8 kPa	989 kg/m3
925 kPa	988.8 kg/m3
933.2 kPa	989 kg/m3
941.9 kPa	988.9 kg/m3
951.9 kPa	989 kg/m3
958.5 kPa	988.9 kg/m3
967.6 kPa	989 kg/m3
978.3 kPa	988.9 kg/m3
988.8 kPa	988.9 kg/m3
998 kPa	988.9 kg/m3
1009.3 kPa	989 kg/m3
1019.8 kPa	989 kg/m3
1029.2 kPa	989 kg/m3
1039.1 kPa	989.1 kg/m3
1048.9 kPa	989 kg/m3
1061.2 kPa	989 kg/m3
1072 kPa	989 kg/m3
1082 kPa	989.1 kg/m3
1093.8 kPa	989.1 kg/m3
1103.9 kPa	989.2 kg/m3
1113.5 kPa	989 kg/m3
1123.5 kPa	989.2 kg/m3
1135.9 kPa	989 kg/m3
1146.3 kPa	989 kg/m3
1156.2 kPa	989.1 kg/m3
1166.8 kPa	989.1 kg/m3
1179.7 kPa	989.1 kg/m3
1189.9 kPa	989.1 kg/m3
1200.7 kPa	989.1 kg/m3
1210.9 kPa	989.1 kg/m3
1223.8 kPa	989.2 kg/m3
1234.4 kPa	989.1 kg/m3
1245.1 kPa	989.2 kg/m3
1258.2 kPa	989.1 kg/m3
1269.3 kPa	989.2 kg/m3
1280 kPa	989.2 kg/m3
1291.5 kPa	989.2 kg/m3
1305.2 kPa	989.2 kg/m3
1316.3 kPa	989.2 kg/m3
1327.8 kPa	989.1 kg/m3
1339.4 kPa	989.3 kg/m3
1353.7 kPa	989.2 kg/m3
1365.5 kPa	989.2 kg/m3
1377.5 kPa	989.2 kg/m3
1391.9 kPa	989.3 kg/m3
1719.8 kPa	989.5 kg/m3
1738.4 kPa	989.5 kg/m3
1753.5 kPa	989.5 kg/m3
1768.6 kPa	989.6 kg/m3
1784.2 kPa	989.5 kg/m3
1803 kPa	989.6 kg/m3
1854.3 kPa	989.5 kg/m3
1870.3 kPa	989.5 kg/m3
1886.5 kPa	989.6 kg/m3
1903.5 kPa	989.5 kg/m3
1923.6 kPa	989.6 kg/m3
2090.4 kPa	989.6 kg/m3
2108.2 kPa	989.7 kg/m3
2167.4 kPa	989.7 kg/m3
2229.2 kPa	989.8 kg/m3
2248.4 kPa	989.7 kg/m3
2292.3 kPa	989.8 kg/m3
2312.5 kPa	989.8 kg/m3
2337.4 kPa	989.9 kg/m3
2355.8 kPa	989.8 kg/m3
2380.4 kPa	989.9 kg/m3
2401.1 kPa	989.9 kg/m3
2421.9 kPa	989.8 kg/m3
2443 kPa	989.9 kg/m3
2468.5 kPa	990 kg/m3
2489.7 kPa	990 kg/m3
2511 kPa	990 kg/m3
2536.5 kPa	989.9 kg/m3
2558.6 kPa	990 kg/m3
2580.8 kPa	990 kg/m3
2603.5 kPa	990 kg/m3
2631.6 kPa	990 kg/m3
2649.5 kPa	990.1 kg/m3
2676.9 kPa	990 kg/m3
2699.1 kPa	990 kg/m3
2726.5 kPa	990 kg/m3
2749.6 kPa	990.2 kg/m3
2772.3 kPa	990.1 kg/m3
2795.2 kPa	990.1 kg/m3
2823.5 kPa	990.2 kg/m3
2846.9 kPa	990.2 kg/m3
2870.6 kPa	990.2 kg/m3
2899.1 kPa	990.1 kg/m3
2923.3 kPa	990.2 kg/m3
2948 kPa	990.2 kg/m3
2972.9 kPa	990.3 kg/m3
3001.9 kPa	990.2 kg/m3
3026.2 kPa	990.3 kg/m3
3050.9 kPa	990.3 kg/m3
3075.6 kPa	990.3 kg/m3
3105.6 kPa	990.3 kg/m3
3130.3 kPa	990.3 kg/m3
3156 kPa	990.4 kg/m3
3181.3 kPa	990.4 kg/m3
3212.3 kPa	990.4 kg/m3
3237.8 kPa	990.4 kg/m3
3263.7 kPa	990.4 kg/m3
3294.7 kPa	990.4 kg/m3
3320.9 kPa	990.4 kg/m3
3346.9 kPa	990.6 kg/m3
3378.1 kPa	990.5 kg/m3
3404.7 kPa	990.5 kg/m3
3430.9 kPa	990.6 kg/m3
3457.8 kPa	990.7 kg/m3
3490.4 kPa	990.6 kg/m3
3517.7 kPa	990.5 kg/m3
3545.6 kPa	990.5 kg/m3
3578.7 kPa	990.6 kg/m3
3606.3 kPa	990.7 kg/m3
3634.2 kPa	990.5 kg/m3
3662.6 kPa	990.7 kg/m3
3690.5 kPa	990.7 kg/m3
3724.1 kPa	990.7 kg/m3
3752.7 kPa	990.9 kg/m3
3781.8 kPa	990.7 kg/m3
3810.6 kPa	990.8 kg/m3
3844.5 kPa	990.8 kg/m3
3872.4 kPa	990.8 kg/m3
3901 kPa	990.8 kg/m3
3935 kPa	990.9 kg/m3
3963.4 kPa	990.9 kg/m3
3991.9 kPa	990.9 kg/m3
4026.4 kPa	990.9 kg/m3
4056 kPa	991 kg/m3
4084.6 kPa	991 kg/m3
4113.5 kPa	991 kg/m3
4146.8 kPa	991 kg/m3
4175 kPa	991.1 kg/m3
4876.2 kPa	991.5 kg/m3
4893.7 kPa	991.5 kg/m3
4923.8 kPa	991.5 kg/m3
4939.3 kPa	991.6 kg/m3
4955.2 kPa	991.5 kg/m3
4973.4 kPa	991.6 kg/m3
4988.8 kPa	991.5 kg/m3
5003.5 kPa	991.5 kg/m3
5021.5 kPa	991.7 kg/m3
5037.1 kPa	991.6 kg/m3
5052.1 kPa	991.7 kg/m3
5067.7 kPa	991.7 kg/m3
5086.4 kPa	991.5 kg/m3
5101.8 kPa	991.6 kg/m3
5117.7 kPa	991.7 kg/m3
